Measurements published in patent US9840501B2, “Morpholin-pyridine derivatives” (Hoffmann-La Roche Inc., priority 2014, dated 2017).

Tests used:
mouse TAAR1 = mouse TAAR1 (Mus musculus (Mouse), UniProt Q923Y8); assay: Radioligand binding assay on mouse TAAR1; settings: mouse TAAR1, membranes of stably transfected HEK-293 cells; first value of the pair; read-out: Ki (μM) mouse/rat: mouse
Experimental: (§1) For the construction of expression plasmids the coding sequences of human, rat and mouse TAAR 1 were amplified from genomic DNA essentially as described by Lindemann et al.. The Expand High Fidelity PCR System (Roche Diagnostics) was used with 1.5 mM Mg^2+ and purified PCR products were cloned into pCR2.1-TOPO cloning vector (Invitrogen) following the instructions of the manufacturer. PCR products were subcloned into the pIRESneo2 vector (BD Clontech, Palo Alto, Calif.), and expression vectors were sequence verified before introduction in cell lines.
(§2) For the generation of stably transfected cell lines HEK293 cells were transfected with the pIRESneo2 expression plasmids containing the TAAR coding sequences (described above) with Lipofectamine 2000 (Invitrogen) according to the instructions of the manufacturer, and 24 hrs post transfection the culture medium was supplemented with 1 mg/ml G418 (Sigma, Buchs, Switzerland). After a culture period of about 10 d clones were isolated, expanded and tested for responsiveness to trace amines (all compounds purchased from Sigma) with the cAMP Biotrak Enzyme immunoassay (EIA) System (Amersham) following the non-acetylation EIA procedure provided by the manufacturer.
Radioligand Binding Assay on Mouse TAAR1
(§3) Membrane Preparation and Radioligand Binding.
(§4) Cells were released from culture flasks using trypsin/EDTA, harvested, washed twice with ice-cold PBS (without Ca^2+ and Mg^2+), pelleted at 1,000 rpm for 5 min at 4° C., frozen and stored at −80° C. Frozen pellets were suspended in 20 ml HEPES-NaOH (20 mM, pH 7.4) containing 10 mM EDTA and homogenized with a Polytron (PT 6000, Kinematica) at 14′000 rpm for 20 s. The homogenate was centrifuged at 48,000×g for 30 min at 4° C. Subsequently, the supernatant was removed and discarded, and the pellet resuspended in 20 ml HEPES-NaOH (20 mM, pH 7.4) containing 0.1 mM EDTA using the Polytron (20 s at 14′000 rpm). This procedure was repeated and the final pellet resuspended in HEPES-NaOH containing 0.1 mM EDTA and homogenized using the Polytron. Typically, aliquots of 2 ml membrane portions were stored at −80° C. With each new membrane batch the dissociation constant (Kd) was determined via a saturation curve. […] Nonspecific binding was defined as the amount of ^3[H]—(S)-4-[(ethyl-phenyl-amino)-methyl]-4,5-dihydro-oxazol-2-ylamine bound in the presence of 10 μM unlabeled ligand. All compounds were tested at a broad range of concentrations (10 pM to 10 μM) in duplicates. […] The 96 deep well plates were incubated for 1 hr at 4° C. Incubations were terminated by rapid filtration through Unifilter-96 plates (Packard Instrument Company) and glass filters GF/C (Perkin Elmer) presoaked for 1 hr in polyethylenimine (0.3%) and washed 3 times with 1 ml of cold binding buffer. After addition of 45 μl of Microscint 40 (PerkinElmer) the Unifilter-96 plate was sealed and after 1 hr the radioactivity counted using a TopCount Microplate Scintillation Counter (Packard Instrument Company).

rat TAAR1 = rat TAAR1 (Rattus norvegicus (Rat), UniProt Q923Y9); assay: Radioligand binding assay on rat TAAR1; settings: rat TAAR1, membranes of stably transfected HEK-293 cells; second value of the pair; read-out: Ki (μM) mouse/rat: rat
rat TAAR1, sequence (Q923Y9 whole entry): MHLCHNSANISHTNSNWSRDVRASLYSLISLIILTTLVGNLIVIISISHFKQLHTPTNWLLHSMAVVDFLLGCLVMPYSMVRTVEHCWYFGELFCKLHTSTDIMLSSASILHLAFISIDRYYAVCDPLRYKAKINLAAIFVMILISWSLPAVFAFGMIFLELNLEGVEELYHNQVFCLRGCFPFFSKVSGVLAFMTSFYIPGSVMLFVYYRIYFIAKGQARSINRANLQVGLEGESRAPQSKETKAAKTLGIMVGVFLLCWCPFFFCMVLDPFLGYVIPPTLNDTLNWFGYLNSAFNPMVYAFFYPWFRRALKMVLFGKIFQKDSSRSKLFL
Experimental: as §1, §2
Radioligand Binding Assay on Rat TAAR1
as §3
as §4, with “1′000” for “1,000”, “48′000×g” for “48,000×g”

mouse TAAR1, sequence (Q923Y8 whole entry): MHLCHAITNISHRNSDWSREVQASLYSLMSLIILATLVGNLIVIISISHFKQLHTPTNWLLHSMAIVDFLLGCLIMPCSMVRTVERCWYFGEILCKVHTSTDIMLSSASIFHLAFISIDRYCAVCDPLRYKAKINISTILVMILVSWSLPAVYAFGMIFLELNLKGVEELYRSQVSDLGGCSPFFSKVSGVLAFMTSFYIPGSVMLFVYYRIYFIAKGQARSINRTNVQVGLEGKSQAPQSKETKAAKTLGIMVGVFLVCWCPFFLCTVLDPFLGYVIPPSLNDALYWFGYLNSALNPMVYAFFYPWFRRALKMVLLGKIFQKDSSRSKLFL

Row | Structure (SMILES) | Ki (mouse TAAR1) [µM] | Ki (rat TAAR1) [µM]
1 | FC(F)(F)c1ccnc(Nc2ccc([C@@H]3CNCCO3)nc2)c1 [Example 23, 6-[(2S)-Morpholin-2-yl]-N-[4-(trifluoromethyl)-2-pyridyl]pyridin-3-amine] | 0.0124 | 0.154
2 | Clc1ccc(Nc2ccc([C@H]3CNCCO3)nc2)cc1 [Example 24, N-(4-Chlorophenyl)-6-[(2R)-morpholin-2-yl]pyridin-3-amine] | 0.0124 | 0.182
3 | Clc1ccc(Nc2ccc([C@H]3CNCCO3)nc2)nc1 [Example 26, N-(5-Chloro-2-pyridyl)-6-[(2R)-morpholin-2-yl]pyridin-3-amine] | 0.0118 | 0.424
4 | FC(F)(F)c1ccc(Nc2ccc([C@H]3CNCCO3)nc2)cn1 [Example 27, 6-[(2R)-Morpholin-2-yl]-N-[6-(trifluoromethyl)-3-pyridyl]pyridin-3-amine] | 0.074 | 1.1
5 | FC(F)(F)c1ccnc(Nc2ccc([C@H]3CNCCO3)nc2)c1 [Example 28, 6-[(2R)-Morpholin-2-yl]-N-[4-(trifluoromethyl)-2-pyridyl]pyridin-3-amine] | 0.11 | 0.606
6 | FC(F)(F)c1ccc(Nc2ccc([C@@H]3CNCCO3)nc2)nc1 [Example 29, N-[6-[(2S)-Morpholin-2-yl]-3-pyridyl]-5-(trifluoromethyl)pyridin-2-amine] | 0.0035 | 0.0103
7 | FC(F)(F)c1cccc(Nc2ccc([C@@H]3CNCCO3)nc2)n1 [Example 30, N-[6-[(2S)-Morpholin-2-yl]-3-pyridyl]-6-(trifluoromethyl)pyridin-2-amine] | 0.0034 | 0.0208
8 | O=C(Nc1ccc([C@@H]2CNCCO2)nc1)c1ccc(Cl)cc1 [Example 31, 4-Chloro-N-[6-[(2S)-morpholin-2-yl]-3-pyridyl]benzamide] | 0.003 | 0.102
9 | O=C(Nc1ccc([C@@H]2CNCCO2)nc1)c1ccc(C(F)(F)F)cc1 [Example 33, N-[6-[(2S)-Morpholin-2-yl]-3-pyridyl]-4-(trifluoromethyl)benzamide] | 0.0056 | 0.052
10 | O=C(Nc1ccc([C@@H]2CNCCO2)nc1)c1cccc(C(F)(F)F)c1 [Example 35, N-[6-[(2S)-Morpholin-2-yl]-3-pyridyl]-3-(trifluoromethyl)benzamide] | 0.0056 | 0.0107
11 | O=C(Nc1ccc([C@@H]2CNCCO2)nc1)c1ccc(OCC(F)(F)F)nc1 [Example 36, N-[6-[(2S)-Morpholin-2-yl]-3-pyridyl]-6-(2,2,2-trifluoroethoxy)pyridine-3-carboxamide] | 0.0066 | 0.0278
12 | CCc1ncc(C(=O)Nc2ccc([C@@H]3CNCCO3)nc2)cn1 [Example 37, 2-Ethyl-N-[6-[(2S)-morpholin-2-yl]-3-pyridyl]pyrimidine-5-carboxamide] | 0.139 | 1.47
13 | CC(C)c1cc(C(=O)Nc2ccc([C@@H]3CNCCO3)nc2)[nH]n1 [Example 38, 3-Isopropyl-N-[6-[(2S)-morpholin-2-yl]-3-pyridyl]-1H-pyrazole-5-carboxamide] | 0.0263 | 0.0727
14 | CCCc1n[nH]c(C(=O)Nc2ccc([C@@H]3CNCCO3)nc2)c1Cl [Example 39, 4-Chloro-N-[6-[(2S)-morpholin-2-yl]-3-pyridyl]-3-propyl-1H-pyrazole-5-carboxamide] | 0.007 | 0.0146
15 | O=C(Nc1ccc([C@@H]2CNCCO2)nc1)c1[nH]nc(C2CC2)c1Cl [Example 40, 4-Chloro-3-cyclopropyl-N-[6-[(2S)-morpholin-2-yl]-3-pyridyl]-1H-pyrazole-5-carboxamide] | 0.0089 | 0.0428
16 | O=C(Nc1ccc([C@@H]2CNCCO2)nc1)Nc1cccc(C(F)(F)F)c1 [Example 42, 1-[6-[(2S)-Morpholin-2-yl]-3-pyridyl]-3-[3-(trifluoromethyl)phenyl]urea] | 0.0038 | 0.003
17 | O=C(Nc1ccc([C@@H]2CNCCO2)nc1)c1[nH]nc(C(F)(F)F)c1Cl [Example 43, 4-Chloro-N-[6-[(2S)-morpholin-2-yl]-3-pyridyl]-3-(trifluoromethyl)-1H-pyrazole-5-carboxamide] | 0.0474 | 0.0838
18 | Cc1n[nH]c(C(=O)Nc2ccc([C@@H]3CNCCO3)nc2)c1Cl [Example 44, 4-Chloro-3-methyl-N-[6-[(2S)-morpholin-2-yl]-3-pyridyl]-1H-pyrazole-5-carboxamide] | 0.0239 | 0.443
19 | Cc1cn[nH]c1C(=O)Nc1ccc([C@@H]2CNCCO2)nc1 [Example 45, 4-Methyl-N-[6-[(2S)-morpholin-2-yl]-3-pyridyl]-1H-pyrazole-5-carboxamide] | 0.162 | 1.13
20 | CCCc1c(Cl)c(C(=O)Nc2ccc([C@@H]3CNCCO3)nc2)nn1C [Example 46, 4-Chloro-1-methyl-N-[6-[(2S)-morpholin-2-yl]-3-pyridyl]-5-propyl-pyrazole-3-carboxamide] | 0.0188 | 0.651
21 | Brc1ccc(Nc2ccc([C@H]3CNCCO3)nc2)nc1 [Example 47, N-(5-Bromo-2-pyridyl)-6-[(2R)-morpholin-2-yl]pyridin-3-amine] | 0.0039 | 0.165
22 | CCCc1c(Cl)c(C(=O)Nc2ccc([C@H]3CNCCO3)nc2)nn1C [Example 48, 4-Chloro-1-methyl-N-[6-[(2R)-morpholin-2-yl]-3-pyridyl]-5-propyl-pyrazole-3-carboxamide] | 0.0199 | 1.37
23 | FC(F)(F)c1ccc(Nc2ccc([C@H]3CNCCO3)nc2)nc1 [Example 49, N-[6-[(2R)-Morpholin-2-yl]-3-pyridyl]-5-(trifluoromethyl)pyridin-2-amine] | 0.0052 | 0.066
24 | FC(F)(F)c1cccc(Nc2ccc([C@H]3CNCCO3)nc2)n1 [Example 50, N-[6-[(2R)-Morpholin-2-yl]-3-pyridyl]-6-(trifluoromethyl)pyridin-2-amine] | 0.005 | 0.122
25 | O=C(Nc1ccc([C@H]2CNCCO2)nc1)c1ccc(Cl)cc1 [Example 51, 4-Chloro-N-[6-[(2R)-morpholin-2-yl]-3-pyridyl]benzamide] | 0.0039 | 0.212
26 | O=C(Nc1ccc([C@H]2CNCCO2)nc1)c1ccc(C(F)(F)F)cc1 [Example 53, N-[6-[(2R)-Morpholin-2-yl]-3-pyridyl]-4-(trifluoromethyl)benzamide] | 0.0061 | 0.0718
27 | O=C(Nc1ccc([C@H]2CNCCO2)nc1)c1cccc(C(F)(F)F)c1 [Example 55, N-[6-[(2R)-Morpholin-2-yl]-3-pyridyl]-3-(trifluoromethyl)benzamide] | 0.0064 | 0.0221
28 | O=C(Nc1ccc([C@H]2CNCCO2)nc1)c1ccc(OCC(F)(F)F)nc1 [Example 56, N-[6-[(2R)-Morpholin-2-yl]-3-pyridyl]-6-(2,2,2-trifluoroethoxy)pyridine-3-carboxamide] | 0.0075 | 0.0334
